This note sets out measurements from patent US20250099684A1, “HYDROGEN PEROXIDE SOLUTION-PREFILLED SYRINGE WITH EXCELLENT HYDROGEN PEROXIDE PRESERVATION DUE TO SILICONE OIL INCLUDED IN OIL COMPOSITION” (KORTUC Inc., priority 2019, published 2025).

The structures appear in SMILES notation. Where two headings read alike, the source gives them in different places.

The conditions of this series: sealed, stored at 60° C. for 4 weeks, Oxydol "KENEI" 2.5 to 3.5% (w/v) hydrogen peroxide.

As to `OO` [hydrogen peroxide], the “residual ratio of hydrogen peroxide” value reads like this: (glass container coated with the silicone oil (Dow Corning 360 Medical Fluid, 12,500 cSt)) no less than 78%; (glass container not coated with the silicone oil) “about 70%”.
